From patent US6582902B1, “Method for deriving epitopes” (priority 1992, dated 2003)
No end group written: not given here.

Columns and labels:
anti-g10 serum [1] = assay: Competition for immunoprecipitation of [32P] D10 RNA by anti-g10 serum; assay type: binding, rabbit; details: FIG. 5A (125 mg competitor) and FIG. 5B (g10 peptide 37-444 nM)
Method: [^32P] labeled in vitro transcribed D10 RNA or [^35S] labeled in vitro translated g10 fusion protein (g10-U1A) was immunoprecipitated by the anti-g10 serum in the presence of various competitors. D10 RNA and g10 fusion protein bound in the immunoprecipitations were analyzed using denaturing polyacrylamide gels and autoradiography. Panel A: D10 RNA immunoprecipitations with: 1, no competitor; 2, no g10 antiserum added; 3, 125 mg of g10 peptide; 4, 125 mg of bovine serum albumin; 5, 125 mg of control peptide (sequence ETPEEREERRR) (SEQ ID NO:7). Panel B: D10 immunoprecipitations after incubation with increasing amounts of g10 peptide. Lanes: 1, no competitor; 2, 37 nM; 3, 74 nM; 4, 148 nM; 5, 222 nM; 6, 444 nM. Panel C: immunoprecipitations of a g10 containing fusion protein (g10-U1-A) using various competitors. Lanes: 1, no competitor; 2, preimmune rabbit serum; 3, 7.4 nM g10 peptide; 4, 0.7 nM D10 RNA; 5, 0.7 nM unrelated RNA (cDNA encoding loop sequence: ACGTTCGTCG)(SEQ ID NO:8). Panel D: immunoprecipitation of g10-U1A fusion protein after incubation with increasing amounts of D10 RNA. Lanes: 1, no competitor; 2, 0.0175 nM; 3, 0.035 nM; 4, 0.35 nM; 5, 0.7 nM; 6, 1.05 nM.
Competition experiments were performed by addition of the various competitors to [^32P] labeled RNA or [^35S] labeled in vitro translated g10-snRNP-A fusion protein prior to immunoprecipitation. Bound RNAs were analyzed on 6% denaturing acrylamide gels and proteins on 10% SDS-PAGE gels, followed by autoradiography. Antibody-RNA complexes were formed in the presence of competitor g10 peptide or control peptide (FIG. 5A), or with increasing amounts of g10 peptide (FIG. 5B), and uncompeted RNA was recovered by immunoprecipitation.

[2] = system: g10-reactive antibodies (anti-g10 serum); assay: Competition for immunoprecipitation of [35S] g10-U1-A fusion protein by anti-g10 serum; assay type: binding, rabbit; details: FIG. 3B lanes 8-12; g10 peptide 27.8-750 nM; control peptide 25 mM
Description: (§1) Panel A: Western blot of E. coli extracts containing various U1-A protein constructs. All extracts were produced from induced E. coli cells containing recombinant pET-8c T7 expression vectors in accordance with known techniques. See F. Studier et al., Meth. Enzym. 185, 60-89 (1991). U1-A cDNA was cloned into pET-8c either attached or not attached to the g10 peptide. Lanes: 1, 5 and 9: the pET-8c vector alone; 2, 6 and 10: g10-U1-A protein; 3, 7 and 11: U1-A protein; 4, 8 and 12: total HeLa cell extracts. Lanes 1-4 were probed with pre-immune rabbit serum; lanes 5-8 were probed with anti-g10 serum; and lanes 9-12 were probed with a U1/U2-specific autoimmune serum (patient). EW reacts with U1 RNA, U1-70K (70 kDa), U1-A (31 kDa) and U2-A′ (28.4 kDa) (lane 12). Panel B: Immunoprecipitation and competition analysis of [^35S]-methionine-labeled U1-A and g10-U1-A proteins expressed by in vitro transcription, and subsequent translation in rabbit reticulocyte lysates. Lanes: 1 and 2 show the amount of U1-A and g10-U1-A translation product, respectively, added to each immunoprecipitation reaction; 3: blank; 4 and 5: U1-A and g10-U1-A precipitated with serum EW (reactive with U1-A); 6 and 7: U1-A and g10-U1-A, respectively, precipitated with anti-g10 serum. In lanes 8-12, g10-U1-A was precipitated with anti-g10 serum in the presence of varying amounts of competitors as follows: lanes 8-11 contained the g10 peptide at concentrations of 27.8, 83.3, 250 and 750 nM, respectively; lane 12 contained a control peptide (sequence GKSRGFAFVEFK-amide) (SEQ ID NO:4) at a concentration of 25 mM. The faint lower band in all lanes represents either a degradation product or a premature translation termination product and is seen consistently in U1-A translations.
[^32P] labeled in vitro transcribed D10 RNA or [^35S] labeled in vitro translated g10 fusion protein (g10-U1A) was immunoprecipitated by the anti-g10 serum in the presence of various competitors. D10 RNA and g10 fusion protein bound in the immunoprecipitations were analyzed using denaturing polyacrylamide gels and autoradiography. […]

anti-g10 serum [3] = assay: Western blot of E. coli / HeLa extracts probed with anti-g10 serum; assay type: binding, rabbit; details: FIG. 3A lanes 5-8; serum diluted 1:2000
Description: as §1
(§2) A thirteen amino acid peptide was synthesized representing the amino-terminus of g10-fusion proteins expressed from the Studier T7 expression vectors (F. Studier et al., Meth. Enzym. 185, 60-89 (1991)) (peptide sequence: MASMTGGQQMGRC-carboxyl amide (SEQ ID NO:11), purchased from Multiple Peptide Systems). […]

[4] = system: U1/U2-specific autoimmune serum (patient); assay: Western blot probed with control anti-U1-A autoimmune serum (patient); assay type: binding, human; details: FIG. 3A lanes 9-12
Description: as §1, §2

anti-g10 serum [5] = assay: Immunoprecipitation of [35S]-labeled in vitro translated proteins with anti-g10 serum; assay type: binding, rabbit; details: FIG. 3B lanes 6-7
Description: as §1, with “In lanes 8-12, g10-U1-A was precipitated with anti-g10 serum in the presence of varying amounts of competitors as follows: lanes 8-11 contained the g10 peptide at concentrations of 27.8, 83.3, 250 and 750 nM, respectively; lane 12 contained a control peptide (sequence GKSRGFAFVEFK-amide) (SEQ ID NO:4) at a concentration of 25 mM. The faint lower band in all lanes represents either a degradation product or a premature translation termination product and is seen consistently in U1-A translations.” left out

Substance | effect of competitor on D10 RNA precipitation by the anti-g10 serum (anti-g10 serum [1]) | inhibition of anti-g10 antibody binding to g10-U1-A by free peptide [2] | reactivity with anti-g10 serum in Western blot (anti-g10 serum [3]) | reactivity with control anti-U1-A serum in Western blot [4] | precipitation by anti-g10 serum (immunoprecipitation) (anti-g10 serum [5])
ETPEEREERRR [unrelated peptide] | neither bovine serum albumin nor an unrelated peptide showed any effect | – | – | – | –
MASMTGGQQMGRC-carboxyl amide (MASMTGGQQMGRC-NH2) [g10 peptide, reference compound] | inhibited RNA binding | inhibited | – | – | –
authentic HeLa cell U1-A: endogenous U1-A (31 kDa) in total HeLa cell extracts | – | – | not | reacted | –
bovine serum albumin: bovine serum albumin used as control competitor | neither bovine serum albumin nor an unrelated peptide showed any effect | – | – | – | –
g10-U1-A fusion protein: g10-tagged U1-snRNP A protein | – | – | reacted | reacted | precipitated
recombinant U1-A: U1-A protein expressed without the g10 peptide | – | – | not | reacted | not
